Assays:
Assay in all cases: Kinase inhibitory activity, full kinase panel
Type in all cases: biochemical
Details in all cases: single concentration of 1 μM, read-out: %Inhibitory ability
PLK4 = PLK4 (Homo sapiens, UniProt O00444)
Protocol: (§1) In order to measure inhibitory activity (% inhibitory ability) against a protein kinase with respect to the compound of the present invention, a biochemical assay was performed in a full kinase panel shown in the following Table 1. As an experimental compound, the (S)-5-((3-fluorophenyl)ethynyl)-N-(piperidin-3-yl)-3-ureidothiophene-2-carboxamide synthesized in Example 24 was used.

MEK3 = MEK3 (Homo sapiens, UniProt P46734)
Protocol: as §1

AAK1 = AAK1 (Homo sapiens, UniProt Q2M2I8)
Protocol: as §1

VEGFR2 = VEGFR2 (Homo sapiens, UniProt P35968)
Protocol: as §1

MAPKAPK5 = MAPKAPK5 (Homo sapiens, UniProt Q8IW41)
Protocol: as §1

MERTK = MERTK (Homo sapiens, UniProt Q12866)
Protocol: as §1

ULK2 = ULK2 (Homo sapiens, UniProt Q8IYT8)
Protocol: as §1

MAP4K3 = MAP4K3 (Homo sapiens, UniProt Q8IVH8)
Protocol: as §1

ZAP70 = ZAP70 (Homo sapiens, UniProt P43403)
Protocol: as §1

MST4 = MST4 (Homo sapiens, UniProt Q9P289)
Protocol: as §1

KIT = KIT (Homo sapiens, UniProt P10721)
Protocol: as §1

IRAK4 = IRAK4 (Homo sapiens, UniProt Q9NWZ3)
Protocol: as §1

SYK = SYK (Homo sapiens, UniProt P43405)
Protocol: as §1

BLK = BLK (Homo sapiens, UniProt P51451)
Protocol: as §1

CSF1R = CSF1R (Homo sapiens, UniProt P07333)
Protocol: as §1

CHEK1 = CHEK1 (Homo sapiens, UniProt O14757)
Protocol: as §1

YANK2 = YANK2 (Homo sapiens, UniProt Q9NY57)
Protocol: as §1

MEK1 = MEK1 (Homo sapiens, UniProt Q02750)
Protocol: as §1

EGFR(T790M) = EGFR(T790M) (Homo sapiens, UniProt P00533, T790M)
Protocol: as §1

SRPK1 = SRPK1 (Homo sapiens, UniProt Q96SB4)
Protocol: as §1

TRKB = TRKB (Homo sapiens, UniProt Q16620)
Protocol: as §1

MST1 = MST1 (Homo sapiens, UniProt Q13043)
Protocol: as §1

BIKE = BIKE (Homo sapiens, UniProt Q9NSY1)
Protocol: as §1

MAP4K4 = MAP4K4 (Homo sapiens, UniProt O95819)
Protocol: as §1

MKNK2 = MKNK2 (Homo sapiens, UniProt Q9HBH9)
Protocol: as §1

CSK = CSK (Homo sapiens, UniProt P41240)
Protocol: as §1

MARK2 = MARK2 (Homo sapiens, UniProt Q7KZI7)
Protocol: as §1

FGR = FGR (Homo sapiens, UniProt P09769)
Protocol: as §1

PDGFRA = PDGFRA (Homo sapiens, UniProt P16234)
Protocol: as §1

DAPK2 = DAPK2 (Homo sapiens, UniProt Q9UIK4)
Protocol: as §1

MINK = MINK (Homo sapiens, UniProt Q8N4C8)
Protocol: as §1

BUB1 = BUB1 (Homo sapiens, UniProt O43683)
Protocol: as §1

FYN = FYN (Homo sapiens, UniProt P06241)
Protocol: as §1

RIOK3 = RIOK3 (Homo sapiens, UniProt O14730)
Protocol: as §1

FLT3 = FLT3 (Homo sapiens, UniProt P36888)
Protocol: as §1

IRAK1 = IRAK1 (Homo sapiens, UniProt P51617)
Protocol: as §1

JAK2 = JAK2 (Homo sapiens, UniProt O60674)
Protocol: as §1

TGFBR2 = TGFBR2 (Homo sapiens, UniProt P37173)
Protocol: as §1

AXL = AXL (Homo sapiens, UniProt P30530)
Protocol: as §1

PHKG2 = PHKG2 (Homo sapiens, UniProt P15735)
Protocol: as §1

SBK1 = SBK1 (Homo sapiens, UniProt Q52WX2)
Protocol: as §1

DCAMKL1 = DCAMKL1 (Homo sapiens, UniProt O15075)
Protocol: as §1

Sequence of MINK (Q8N4C8 whole entry): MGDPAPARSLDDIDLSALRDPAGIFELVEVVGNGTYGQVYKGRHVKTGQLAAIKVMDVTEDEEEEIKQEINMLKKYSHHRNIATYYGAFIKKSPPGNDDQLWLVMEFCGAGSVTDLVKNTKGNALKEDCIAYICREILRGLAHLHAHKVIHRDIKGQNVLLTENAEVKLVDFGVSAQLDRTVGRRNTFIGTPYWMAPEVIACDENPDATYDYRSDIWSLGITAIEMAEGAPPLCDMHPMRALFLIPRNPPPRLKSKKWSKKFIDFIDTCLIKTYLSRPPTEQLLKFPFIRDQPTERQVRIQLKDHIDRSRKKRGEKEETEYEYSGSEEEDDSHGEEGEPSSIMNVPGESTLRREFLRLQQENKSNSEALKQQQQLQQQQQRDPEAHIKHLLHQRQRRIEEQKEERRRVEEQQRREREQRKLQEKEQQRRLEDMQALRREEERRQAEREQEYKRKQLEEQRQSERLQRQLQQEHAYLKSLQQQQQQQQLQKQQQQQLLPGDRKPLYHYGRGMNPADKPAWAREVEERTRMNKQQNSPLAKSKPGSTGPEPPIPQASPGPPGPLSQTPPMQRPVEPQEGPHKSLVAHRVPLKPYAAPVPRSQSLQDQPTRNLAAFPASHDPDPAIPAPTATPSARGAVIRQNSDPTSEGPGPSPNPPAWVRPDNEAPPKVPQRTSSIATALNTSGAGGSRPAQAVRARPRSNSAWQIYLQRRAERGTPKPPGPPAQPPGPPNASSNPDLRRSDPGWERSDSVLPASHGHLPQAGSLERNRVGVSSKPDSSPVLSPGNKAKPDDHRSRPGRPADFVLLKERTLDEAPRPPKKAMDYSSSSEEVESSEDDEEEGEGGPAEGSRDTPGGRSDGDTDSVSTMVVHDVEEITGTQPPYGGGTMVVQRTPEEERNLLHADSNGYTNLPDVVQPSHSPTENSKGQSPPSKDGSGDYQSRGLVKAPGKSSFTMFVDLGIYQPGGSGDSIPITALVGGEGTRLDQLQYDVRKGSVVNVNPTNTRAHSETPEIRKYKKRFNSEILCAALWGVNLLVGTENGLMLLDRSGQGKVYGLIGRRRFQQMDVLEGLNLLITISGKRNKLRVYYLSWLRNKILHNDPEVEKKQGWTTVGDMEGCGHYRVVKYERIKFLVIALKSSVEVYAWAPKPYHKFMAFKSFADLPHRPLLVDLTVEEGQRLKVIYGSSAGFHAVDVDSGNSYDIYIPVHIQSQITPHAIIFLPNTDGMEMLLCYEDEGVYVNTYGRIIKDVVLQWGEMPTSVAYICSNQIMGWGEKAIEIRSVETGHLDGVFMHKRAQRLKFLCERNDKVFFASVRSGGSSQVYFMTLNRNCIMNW
Sequence of ULK2 (Q8IYT8 whole entry, species assumed): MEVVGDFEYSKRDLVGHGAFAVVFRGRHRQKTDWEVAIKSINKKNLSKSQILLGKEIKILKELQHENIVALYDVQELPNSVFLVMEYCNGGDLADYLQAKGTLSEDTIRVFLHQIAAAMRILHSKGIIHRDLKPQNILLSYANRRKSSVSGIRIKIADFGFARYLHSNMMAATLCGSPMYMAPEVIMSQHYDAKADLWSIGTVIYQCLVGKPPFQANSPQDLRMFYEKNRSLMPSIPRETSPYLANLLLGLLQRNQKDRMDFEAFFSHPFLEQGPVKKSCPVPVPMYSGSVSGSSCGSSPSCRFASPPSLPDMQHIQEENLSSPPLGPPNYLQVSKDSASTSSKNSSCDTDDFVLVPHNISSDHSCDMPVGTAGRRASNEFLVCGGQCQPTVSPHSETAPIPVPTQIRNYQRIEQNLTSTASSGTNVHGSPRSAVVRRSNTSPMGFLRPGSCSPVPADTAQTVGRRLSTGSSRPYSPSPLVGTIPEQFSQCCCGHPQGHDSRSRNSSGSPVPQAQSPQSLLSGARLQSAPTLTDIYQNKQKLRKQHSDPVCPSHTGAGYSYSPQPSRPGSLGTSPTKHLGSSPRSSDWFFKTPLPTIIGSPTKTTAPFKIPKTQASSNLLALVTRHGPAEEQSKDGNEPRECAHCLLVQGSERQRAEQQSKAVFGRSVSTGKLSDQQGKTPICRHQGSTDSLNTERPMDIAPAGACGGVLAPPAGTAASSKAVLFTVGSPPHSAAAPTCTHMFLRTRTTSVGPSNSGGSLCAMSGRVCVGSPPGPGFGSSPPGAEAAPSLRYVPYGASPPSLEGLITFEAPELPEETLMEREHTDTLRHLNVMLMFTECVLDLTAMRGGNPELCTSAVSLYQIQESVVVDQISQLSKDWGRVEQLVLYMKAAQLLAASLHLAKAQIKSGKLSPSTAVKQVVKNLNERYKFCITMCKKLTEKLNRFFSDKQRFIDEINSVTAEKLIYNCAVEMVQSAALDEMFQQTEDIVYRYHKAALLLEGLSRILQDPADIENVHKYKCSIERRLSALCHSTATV
Sequence of BUB1 (O43683 whole entry, species assumed): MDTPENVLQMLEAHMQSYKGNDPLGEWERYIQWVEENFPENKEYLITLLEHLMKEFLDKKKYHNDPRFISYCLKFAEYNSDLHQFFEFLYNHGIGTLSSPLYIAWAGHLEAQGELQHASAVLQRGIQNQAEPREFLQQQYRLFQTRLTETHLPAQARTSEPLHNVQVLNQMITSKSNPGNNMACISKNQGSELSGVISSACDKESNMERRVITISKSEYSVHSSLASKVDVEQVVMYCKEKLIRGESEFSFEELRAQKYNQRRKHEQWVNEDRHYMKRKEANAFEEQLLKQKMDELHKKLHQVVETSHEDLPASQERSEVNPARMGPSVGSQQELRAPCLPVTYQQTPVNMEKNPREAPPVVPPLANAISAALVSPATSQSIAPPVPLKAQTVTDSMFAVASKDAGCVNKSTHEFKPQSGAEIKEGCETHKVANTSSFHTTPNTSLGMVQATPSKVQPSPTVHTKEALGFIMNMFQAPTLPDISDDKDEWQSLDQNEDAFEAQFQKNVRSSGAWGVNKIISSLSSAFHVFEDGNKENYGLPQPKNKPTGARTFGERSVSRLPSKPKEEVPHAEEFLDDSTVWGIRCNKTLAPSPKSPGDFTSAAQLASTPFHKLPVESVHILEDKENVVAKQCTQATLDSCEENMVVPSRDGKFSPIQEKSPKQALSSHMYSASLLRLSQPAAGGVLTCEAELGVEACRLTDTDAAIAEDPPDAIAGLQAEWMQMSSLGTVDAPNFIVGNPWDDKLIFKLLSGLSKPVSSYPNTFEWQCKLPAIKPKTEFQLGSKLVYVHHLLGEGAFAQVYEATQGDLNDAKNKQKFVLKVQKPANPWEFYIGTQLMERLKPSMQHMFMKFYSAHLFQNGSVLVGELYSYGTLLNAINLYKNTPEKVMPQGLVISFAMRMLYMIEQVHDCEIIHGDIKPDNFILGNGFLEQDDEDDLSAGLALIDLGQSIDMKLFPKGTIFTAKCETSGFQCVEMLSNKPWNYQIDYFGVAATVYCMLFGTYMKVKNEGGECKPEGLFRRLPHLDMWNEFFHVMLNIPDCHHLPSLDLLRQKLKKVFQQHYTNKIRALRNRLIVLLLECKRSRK
Sequence of FLT3 (P36888 27-993): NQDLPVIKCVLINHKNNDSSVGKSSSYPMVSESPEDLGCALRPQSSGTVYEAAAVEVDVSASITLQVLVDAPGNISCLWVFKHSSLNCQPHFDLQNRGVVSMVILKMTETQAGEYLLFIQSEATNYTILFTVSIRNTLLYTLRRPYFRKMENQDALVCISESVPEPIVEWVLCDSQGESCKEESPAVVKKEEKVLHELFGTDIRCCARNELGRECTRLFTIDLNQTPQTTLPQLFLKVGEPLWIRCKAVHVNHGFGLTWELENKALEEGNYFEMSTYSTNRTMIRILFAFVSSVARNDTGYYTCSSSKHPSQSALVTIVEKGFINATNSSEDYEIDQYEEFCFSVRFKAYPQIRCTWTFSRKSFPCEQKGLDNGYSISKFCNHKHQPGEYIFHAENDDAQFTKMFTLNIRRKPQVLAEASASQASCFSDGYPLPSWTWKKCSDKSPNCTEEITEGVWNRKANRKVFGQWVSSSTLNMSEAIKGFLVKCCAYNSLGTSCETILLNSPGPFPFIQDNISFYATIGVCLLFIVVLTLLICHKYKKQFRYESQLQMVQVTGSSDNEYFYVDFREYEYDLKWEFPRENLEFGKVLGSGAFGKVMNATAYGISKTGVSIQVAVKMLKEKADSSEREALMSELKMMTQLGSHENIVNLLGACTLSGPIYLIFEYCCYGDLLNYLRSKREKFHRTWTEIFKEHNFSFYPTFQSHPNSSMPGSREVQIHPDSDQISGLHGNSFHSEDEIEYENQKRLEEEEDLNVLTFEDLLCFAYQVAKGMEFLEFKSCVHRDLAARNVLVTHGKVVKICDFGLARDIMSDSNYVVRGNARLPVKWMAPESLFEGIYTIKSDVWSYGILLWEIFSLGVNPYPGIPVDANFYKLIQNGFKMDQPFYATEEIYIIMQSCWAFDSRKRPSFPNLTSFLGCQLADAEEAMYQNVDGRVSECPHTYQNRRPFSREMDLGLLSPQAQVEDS
Sequence of IRAK4 (Q9NWZ3 whole entry, species assumed): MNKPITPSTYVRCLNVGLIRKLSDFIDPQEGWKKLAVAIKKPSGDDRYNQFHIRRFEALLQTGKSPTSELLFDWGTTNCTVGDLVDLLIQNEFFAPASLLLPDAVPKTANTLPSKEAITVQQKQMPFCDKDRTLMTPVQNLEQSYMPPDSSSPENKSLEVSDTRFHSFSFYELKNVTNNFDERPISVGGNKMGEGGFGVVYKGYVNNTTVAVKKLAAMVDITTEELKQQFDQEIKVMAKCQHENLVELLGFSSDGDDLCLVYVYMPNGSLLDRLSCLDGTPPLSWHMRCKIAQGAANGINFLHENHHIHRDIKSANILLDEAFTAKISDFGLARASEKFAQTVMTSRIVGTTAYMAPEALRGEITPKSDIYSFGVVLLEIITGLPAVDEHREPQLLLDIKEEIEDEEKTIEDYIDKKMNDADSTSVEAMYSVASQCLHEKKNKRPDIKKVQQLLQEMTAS

## Cc1ccc(C#Cc2cc(NC(N)=O)c(C(=O)N[C@H]3CCCNC3)s2)cc1 [Example 24, (S)—N-(piperidin-3-yl)-5-(p-tolylethynyl)-3-ureidothiophene-2-carboxamide]
PLK4
  inhibition at 1 µM: 81%
MEK3
  inhibition at 1 µM: 83%
AAK1
  inhibition at 1 µM: 80%
VEGFR2
  inhibition at 1 µM: 73%
MAPKAPK5
  inhibition at 1 µM: 82%
MERTK
  inhibition at 1 µM: 96.1%
ULK2
  inhibition at 1 µM: 99.7%
MAP4K3
  inhibition at 1 µM: 69%
ZAP70
  inhibition at 1 µM: 63%
MST4
  inhibition at 1 µM: 83%
KIT
  inhibition at 1 µM: 99.8%
IRAK4
  inhibition at 1 µM: 99.8%
SYK
  inhibition at 1 µM: 91.5%
BLK
  inhibition at 1 µM: 93.2%
CSF1R
  inhibition at 1 µM: 98.4%
CHEK1
  inhibition at 1 µM: 96.1%
YANK2
  inhibition at 1 µM: 76%
MEK1
  inhibition at 1 µM: 96.3%
EGFR(T790M)
  inhibition at 1 µM: 85%
SRPK1
  inhibition at 1 µM: 83%
TRKB
  inhibition at 1 µM: 97.2%
MST1
  inhibition at 1 µM: 96.6%
BIKE
  inhibition at 1 µM: 77%
MAP4K4
  inhibition at 1 µM: 91.4%
MKNK2
  inhibition at 1 µM: 92.7%
CSK
  inhibition at 1 µM: 92.1%
MARK2
  inhibition at 1 µM: 79%
FGR
  inhibition at 1 µM: 94.1%
PDGFRA
  inhibition at 1 µM: 95.8%
DAPK2
  inhibition at 1 µM: 88%
MINK
  inhibition at 1 µM: 97.1%
BUB1
  inhibition at 1 µM: 97.4%
FYN
  inhibition at 1 µM: 91.5%
RIOK3
  inhibition at 1 µM: 79%
FLT3
  inhibition at 1 µM: 99.6%
IRAK1
  inhibition at 1 µM: 90.7%
JAK2
  inhibition at 1 µM: 83%
TGFBR2
  inhibition at 1 µM: 72%
AXL
  inhibition at 1 µM: 87%
PHKG2
  inhibition at 1 µM: 89%
SBK1
  inhibition at 1 µM: 66%
DCAMKL1
  inhibition at 1 µM: 80%

— patent publication US10442796B2, “2,3,5-substituted thiophene compound as protein kinase inhibitor” (KOREA INSTITUTE OF SCIENCE AND TECHNOLOGY, priority 2016, dated 2019)
